This passage reports IC50 results from US9505758B2 (priority 2013, dated 2016).

The structures appear in SMILES notation.

In the assay the target is T1, influenza A virus (IAV) PA-Nter fragment (amino acids 1-209) (Influenza A virus, UniProt P31343).
T1 construct: PA-Nter fragment (amino acids 1-209); made in house
The assay can be described thus: FRET endonuclease activity assay. The format is biochemical. The following applies: calculated from initial reaction velocities (v0); 0.5 μM PA-Nter, 1.6 μM RNA substrate.

On to `O=C(O)c1cn(CC2(c3ccccc3)CCCC2)c2nccnc2c1=O`, for which the IC50 was 9700 nM.
In the case of `O=C(O)c1cn(Cc2ccccc2-c2ccccc2)c2cc(Br)cnc2c1=O` [1-(Biphenyl-2-ylmethyl)-7-bromo-4-oxo-1,4-dihydro-1,5-naphthyridine-3-carboxylic acid] it was 1500 nM; in that of `O=C(O)c1cn(Cc2ccccc2-c2ccc(Cl)cc2)c2cccnc2c1=O`, 430 nM.
Take `O=C(O)c1cn(Cc2ccccc2-c2ccccc2)c2cccnc2c1=O`: the IC50 is 760 nM.
In the case of `O=C(O)c1cn(CC2(c3ccccc3)CCCC2)c2cccnc2c1=O` it was 600 nM.
In the case of `Cc1cnc2c(=O)c(C(=O)O)cn(Cc3ccccc3-c3ccccc3)c2c1` it was 570 nM; in that of `O=C(O)c1cn(Cc2ccccc2-c2ccccc2)c2nccnc2c1=O`, 7800 nM.
